Laboratory results: PubChem BioAssay AID1919015 (Molecular Pharmacology Branch, DTP, NCI, 2023)
pIC50: −log10 of the molar value.

Tested on: OVCAR-5 complex spheroids with HUVEC/MSC, viability, % test/control
Test: Anticancer human tumor OVCAR-5 cell line growth inhibition [AhR];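 further: spheroids exposed to compounds for 7 days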;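 on viability, T/C: 100% = DMSO vehicle control wells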
Conditions: for pIC50: curve of first compound; for viability, T/C: stronger effect = lower value
How it was run: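 Complex tumor spheroids co-cultured with HUVEC and human MSC stroma; AhR antagonists tested in combination with standard-of-care and investigational agents. Top concentration at or near clinical Cmax (else 10 microM), half-log dilutions; growth expressed as percent test/control.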

[1] = second compound 0.1 µM, first compound 0.0316 µM
[2] = second compound 0.1 µM, first compound 0.1 µM
[3] = second compound 0.1 µM, first compound 0.316 µM
[4] = second compound 0.1 µM, first compound 1 µM
[5] = second compound 0.316 µM, first compound 0.0316 µM
[6] = second compound 0.316 µM, first compound 0.1 µM
[7] = second compound 0.316 µM, first compound 0.316 µM
[8] = second compound 0.316 µM, first compound 1 µM
[9] = second compound 1 µM, first compound 0.0316 µM
[10] = second compound 1 µM, first compound 0.1 µM
[11] = second compound 1 µM, first compound 0.316 µM
[12] = second compound 1 µM, first compound 1 µM
[13] = second compound 3.16 µM, first compound 0.0316 µM
[14] = second compound 3.16 µM, first compound 0.1 µM
[15] = second compound 3.16 µM, first compound 0.316 µM
[16] = second compound 3.16 µM, first compound 1 µM
[17] = second compound 10 µM, first compound 0.0316 µM
[18] = second compound 10 µM, first compound 0.1 µM
[19] = second compound 10 µM, first compound 0.316 µM
[20] = second compound 10 µM, first compound 1 µM

Compound	pIC50 (second compound 0.1 µM)	pIC50 (second compound 0.316 µM)	pIC50 (second compound 1 µM)	pIC50 (second compound 3.16 µM)	pIC50 (second compound 10 µM)	viability, T/C [1] [%]	viability, T/C [2] [%]	viability, T/C [3] [%]	viability, T/C [4] [%]	viability, T/C [5] [%]	viability, T/C [6] [%]	viability, T/C [7] [%]	viability, T/C [8] [%]	viability, T/C [9] [%]	viability, T/C [10] [%]	viability, T/C [11] [%]	viability, T/C [12] [%]	viability, T/C [13] [%]	viability, T/C [14] [%]	viability, T/C [15] [%]	further results
CC(C)c1c(-c2ccccc2)nc2c(C#N)c[nH]n2c1=O + CC(CO)NC(=O)c1cc(-c2ccc(Cl)cc2)nn(-c2cnn(C)c2)c1=O	< 5.00	< 5.00	< 5.00	< 5.00	< 5.00	117	111	112	115	107	117	114	115	114	121	119	116	99	108	107	viability, T/C (second compound 0.1 µM, first compound 3.16 µM): 114%; viability, T/C (second compound 0.1 µM, first compound 10 µM): 116%; viability, T/C (second compound 0.316 µM, first compound 3.16 µM): 116%; viability, T/C (second compound 0.316 µM, first compound 10 µM): 119%; viability, T/C (second compound 1 µM, first compound 3.16 µM): 117%; viability, T/C (second compound 1 µM, first compound 10 µM): 121%; viability, T/C [16]: 105%; viability, T/C (second compound 3.16 µM, first compound 3.16 µM): 111%; viability, T/C (second compound 3.16 µM, first compound 10 µM): 111%; viability, T/C [17]: 101%; viability, T/C [18]: 105%; viability, T/C [19]: 100%; viability, T/C [20]: 101%; viability, T/C (second compound 10 µM, first compound 3.16 µM): 103%; viability, T/C (second compound 10 µM, first compound 10 µM): 104%
CC1COCCN1c1cc(-c2ccnn2C)c2ccnc(-c3ccn[nH]3)c2n1 (stereo not given) + CC(CO)NC(=O)c1cc(-c2ccc(Cl)cc2)nn(-c2cnn(C)c2)c1=O	6.55	6.56	6.53	6.68	7.02	110	87	46.2	30.8	109	87	45.1	32.1	118	89	48.6	35.4	102	67.6	40.3	viability, T/C (second compound 0.1 µM, first compound 0.00316 µM): 111%; viability, T/C (second compound 0.1 µM, first compound 0.01 µM): 111%; viability, T/C (second compound 0.316 µM, first compound 0.00316 µM): 111%; viability, T/C (second compound 0.316 µM, first compound 0.01 µM): 113%; viability, T/C (second compound 1 µM, first compound 0.00316 µM): 119%; viability, T/C (second compound 1 µM, first compound 0.01 µM): 121%; viability, T/C (second compound 3.16 µM, first compound 0.00316 µM): 106%; viability, T/C (second compound 3.16 µM, first compound 0.01 µM): 115%; viability, T/C [16]: 35%; viability, T/C (second compound 10 µM, first compound 0.00316 µM): 99.7%; viability, T/C (second compound 10 µM, first compound 0.01 µM): 103%; viability, T/C [17]: 83.9%; viability, T/C [18]: 49%; viability, T/C [19]: 35.5%; viability, T/C [20]: 33.5%
